What all share (experiment): NCI-60 cell line screen, 48 h
For test [1], the system named is SW-620 colon.
The test system of test [2] is OVCAR-3 ovarian.
Test [3] relates to SF-539 CNS.
The test system of test [4] is NCI-H23 lung.
The subject of test [5] is OVCAR-8 ovarian.
Test [6] concerns RXF 393 renal.
In test [7] the test system is SK-MEL-2 melanoma.
In test [8] the test system is SNB-19 CNS.
For test [9], the system named is A498 renal.
Test [10] concerns MCF7 breast.

Molecules are shown by their SMILES.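 These data come from cells grown in 96-well plates and exposed to compound for 48 hours at five concentrations. The concentration for 50% growth inhibition is given as GI50. Definition used: TGI = concentration required for complete inhibition of growth.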

Turning to `CCOC(=O)CCc1c(C)c2c(OC)cc(OC)cc2oc1=O`, the TGI in test [1] is above 100 µM; in test [2] it was above 100 µM; in test [3], above 100 µM; in [4], above 100 µM; in test [5], above 100 µM; in test [6], 82.4 µM. The TGI in test [7] and in test [8] was above 100 µM throughout.
As to `CC(=O)Oc1ccc2c(=O)c(C(C)=O)coc2c1`, the TGI in test [1], in test [2], in test [3], in [4], in test [9] and in [5] was above 100 µM each time. Also, the TGI in [6], in [7] and in test [8] was above 100 µM throughout.
For the compound `COC(=O)C1c2cc3c(c(O)c2CCC1(C)O)C(=O)c1c(O)cc2c(c1C3=O)OC1OC2(C)C(O)C(N(C)C)C1O` (configuration not stated), the TGI was determined as 1.08 µM in test [1]; 1.62 µM in [2]; 2.5 µM in test [10]; 3.88 µM in test [3]; 1.99 µM in [4]; 0.591 µM in test [5]. Further, the TGI in test [6] was determined as 1.55 µM; in test [7], 18.8 µM; in test [8] it was 1.39 µM.
In the case of `Cn1cc(-c2csc(-c3ccccc3)n2)c2cccnc21`, the GI50 in test [1] is 14.9 µM; in test [2] it was 16.3 µM; in test [10], 12.6 µM; in [3] it was 14.2 µM; in [4], 16.2 µM; in [5], 20.3 µM. Further, the figures for the GI50 in test [6], in test [7] and in test [8] were 14.6 µM, 18.5 µM and 15.9 µM, respectively. The TGI in test [1] is 30.1 µM; in test [2] it was 32 µM; in [10] it was 33.8 µM; in [3] it was 28.3 µM; in [4], 38 µM; in test [5] it was 52.4 µM. The TGI in test [6] was determined as 33.2 µM; in test [7], 42.3 µM; in test [8] it was 47.8 µM.
Take `OC1CC(O)O[C@H](c2ccccc2)C1` (some centres not stated): the TGI in test [1], in [2], in [3], in test [4], in test [9] and in test [5] was above 100 µM throughout. In addition, the TGI in test [6] and in test [8] was above 100 µM each time.
Consider `NC(=O)c1c[nH]c2ncnc(N)c12`, for which the GI50 in test [1] was 27.1 µM; in [2], 23.5 µM; in test [10], 45.4 µM; in test [3] it was 44.8 µM; in test [4], above 100 µM; in test [9] it was 22.9 µM. The GI50 was 90.2 µM in test [5], 47.2 µM in [7] and above 100 µM in [8]. For the same compound, the TGI is above 100 µM in test [1]; above 100 µM in test [2]; above 100 µM in [10]; above 100 µM in test [3]; above 100 µM in [4]; 67.4 µM in test [9]. For the same compound, the TGI in test [5], in [7] and in [8] was above 100 µM each time.
For the compound `N#CC1=C(N)N=C(N2CCOCC2)C(C#N)C12Nc1ccccc1S2` (configuration not stated), the GI50 was 23.2 µM in test [1]; 20.1 µM in [2]; 18.9 µM in test [3]; 4.23 µM in test [5]; 19 µM in test [6]; 35.2 µM in test [7]. For the same compound, the GI50 in test [8] was 33.8 µM. Besides, the TGI in test [1] is above 100 µM; in test [2], 58.1 µM; in test [3], 35.5 µM; in test [5], 59.5 µM; in test [6], above 100 µM; in [7] it was 95 µM. The TGI in [8] was above 100 µM.
For `CCOC(=O)C(C(=O)OCC)=C1C=C(c2ccccc2)c2ccccc21`, the TGI in [1] was above 100 µM; in test [2], above 100 µM; in [3], above 100 µM; in test [4] it was above 100 µM; in [9], 62.9 µM; in test [5], above 100 µM. In addition, the TGI in test [6], in test [7] and in test [8] was above 100 µM each time.
As for `CC(=O)[O-].CC(=O)[O-].O=C([CH-]C(=O)c1ccccc1)c1ccccc1.[Nd+3].[OH3+]`, the GI50 in test [1] was 16.3 µM; in test [2] it was 10.7 µM; in [3] it was 31.6 µM; in test [4], 18.7 µM; in [9], 43.1 µM; in test [5], 15.8 µM. In addition, the GI50 in [7] is 16.4 µM; in test [8] it was 30.1 µM. Further, the TGI in test [1] was above 100 µM; in [2] it was 33.5 µM; in test [3] it was 93.5 µM; in test [4] it was 57.7 µM; in test [9], above 100 µM; in [5], above 100 µM. In addition, the TGI was 50.7 µM in test [7] and above 100 µM in test [8].
As to `O=C(c1ccccc1)n1cc(/C=C/[N+](=O)[O-])c2ccccc21`, the TGI in test [1] was 38.1 µM; in test [2] it was above 100 µM; in test [3] it was 46.4 µM; in [4] it was 37.6 µM; in test [9], above 100 µM; in test [5], above 100 µM. In addition, the TGI was 36.9 µM in test [6], 35.6 µM in test [7] and 92.3 µM in test [8].
For the compound `CC(=O)OCc1nnn2c1C(OC(C)=O)CC2` (configuration not stated), the TGI in [1], in test [2], in test [3], in test [4], in test [5] and in test [6] was above 100 µM each time. In addition, the TGI in test [7] and in [8] was above 100 µM throughout.
Regarding `C[C@@H](NC1CCCC[C@@H]1O)c1ccccc1` (some centres not stated), the TGI in [1], in test [2], in [5], in test [6], in [7] and in test [8] was above 100 µM each time.

The record behind these values is PubChem BioAssay (NCI).
